The values below come from ChEMBL document CHEMBL1201862, “PubChem BioAssay data set” (2004).

Some test systems named below: K562; HOP-92; NCI-H522; UO-31; HCT-116; HCT-15; A498; SW-620; U-251; RPMI-8226; SF-295; OVCAR-4; OVCAR-3; SK-MEL-2; UACC-257; Malme-3M.
Test in all cases: NCI-60 cell line screen, 48 h

Each structure is given as a SMILES string.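 Method: 48-hour compound exposure of cells in 96-well plates, five concentrations, linear interpolation of endpoints. GI50 is the concentration that inhibits growth by half.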 The source made the active and inactive calls. No stated cut-off is given here; in the data, active = GI50 up to about 1.1 µM and inactive = higher.

Turning to `O=C(NCCOCCO)c1ccc(O)cc1`, the GI50 in the experiment with K562 was > 100 µM (inactive); in the experiment on HOP-92, > 100 µM (inactive); in the experiment on NCI-H522, > 100 µM (inactive); in the experiment with UO-31 it was > 100 µM (inactive); in the experiment with HCT-116, > 100 µM (inactive); in the experiment with HCT-15 it was more than 100 µM. For the same compound, the GI50 in the experiment with A498, with SW-620, with U-251 and in the experiment with RPMI-8226 was > 100 µM (inactive) in each case.
Turning to `NC(=O)Nc1c([N+](=O)[O-])cc(C(F)(F)F)cc1[N+](=O)[O-]`, the GI50 in the experiment on K562 was 56.2 µM (inactive); in the experiment with HOP-92, 40.5 µM (inactive); in the experiment with NCI-H522 it was 32.6 µM (inactive); with SF-295, > 100 µM (inactive); with OVCAR-4 it was 63.1 µM (inactive); with UO-31, > 100 µM (inactive). The GI50 is 59.4 µM (inactive) with HCT-116; 28.8 µM (inactive) in the experiment with OVCAR-3; 65.8 µM in the experiment on HCT-15; > 100 µM (inactive) in the experiment on A498; > 100 µM (inactive) in the experiment with SK-MEL-2; 51.2 µM (inactive) with SW-620. The GI50 was > 100 µM (inactive) in the experiment on U-251, > 100 µM (inactive) with RPMI-8226 and 72.3 µM (inactive) in the experiment on UACC-257.
`CC1(C)CCC(Sc2ccccc2)O1` (stereo not given): the GI50 in the experiment with K562, with HOP-92, in the experiment with SF-295, with OVCAR-4, with UO-31 and in the experiment on HCT-116 was > 100 µM (inactive) throughout. In addition, the GI50 is > 100 µM (inactive) in the experiment on OVCAR-3; more than 100 µM with HCT-15; > 100 µM (inactive) with A498; > 100 µM (inactive) in the experiment on SK-MEL-2; > 100 µM (inactive) in the experiment on SW-620; > 100 µM (inactive) in the experiment on U-251. Further, the GI50 with RPMI-8226 and with UACC-257 was > 100 µM (inactive) each time.
For `O=C1c2ccccc2C2(O)Nc3c(ccc4ccccc34)C12O` (stereo not given), the GI50 in the experiment on K562 is 61.4 µM (inactive); in the experiment on NCI-H522, 95.5 µM (inactive); in the experiment with SF-295, > 100 µM (inactive); in the experiment on OVCAR-4, > 100 µM (inactive); in the experiment on UO-31 it was 95.5 µM (inactive); with Malme-3M it was > 100 µM (inactive). The GI50 is > 100 µM (inactive) in the experiment with HCT-116; 99.5 µM (inactive) in the experiment on OVCAR-3; more than 100 µM with HCT-15; > 100 µM (inactive) with A498; > 100 µM (inactive) in the experiment on SK-MEL-2; > 100 µM (inactive) in the experiment with SW-620. Besides, the GI50 with U-251, in the experiment with RPMI-8226 and in the experiment with UACC-257 was > 100 µM (inactive) in each case.
For the compound `O=C1OC(/C=C/c2ccccc2)C(=O)C1=O` (stereo not given), the GI50 in the experiment on K562, in the experiment on HOP-92, in the experiment with NCI-H522, in the experiment on SF-295, in the experiment with OVCAR-4 and with UO-31 was > 100 µM (inactive) each time. Moreover, the GI50 was > 100 µM (inactive) in the experiment on Malme-3M; more than 100 µM with HCT-15; > 100 µM (inactive) in the experiment with A498; > 100 µM (inactive) with SK-MEL-2; > 100 µM (inactive) in the experiment on SW-620; > 100 µM (inactive) in the experiment with U-251. For the same compound, the GI50 in the experiment on RPMI-8226 and in the experiment with UACC-257 was > 100 µM (inactive) each time.
Regarding `CN(C)c1ccc(/C=c2\sc3nc4ccccc4n3c2=O)cc1`, the GI50 in the experiment on K562, in the experiment with HOP-92, in the experiment on NCI-H522, in the experiment on SF-295, with OVCAR-4 and with UO-31 was > 100 µM (inactive) in each case. Moreover, the GI50 with Malme-3M was > 100 µM (inactive); with HCT-116, > 100 µM (inactive); in the experiment with OVCAR-3, > 100 µM (inactive); in the experiment with HCT-15 it was more than 100 µM; with A498 it was > 100 µM (inactive); in the experiment with SK-MEL-2 it was > 100 µM (inactive). In addition, the GI50 in the experiment on SW-620, with U-251 and in the experiment on UACC-257 was > 100 µM (inactive) each time.
With `CCCCCCCCCCCCCCCCOC(=O)C(C(=O)OCCCCCCCCCCCCCCCC)[N+](C)(C)CCOC(C)=O`, the GI50 in the experiment with K562 was 19.5 µM (inactive); with HOP-92 it was 2.85 µM (inactive); in the experiment with NCI-H522 it was 5.16 µM (inactive); in the experiment with SF-295, 18.1 µM (inactive); in the experiment with OVCAR-4, 15.9 µM (inactive); in the experiment on UO-31 it was 19.7 µM (inactive). Also, the GI50 in the experiment on Malme-3M is 21.2 µM (inactive); with HCT-116 it was 16.4 µM (inactive); in the experiment with OVCAR-3, 16.7 µM (inactive); in the experiment with HCT-15, 22.1 µM; with A498, 23.6 µM (inactive); with SK-MEL-2, 20.1 µM (inactive). Further, the figures for the GI50 in the experiment with SW-620, in the experiment on U-251 and with UACC-257 were 20.6 µM (inactive), 12 µM (inactive) and 19.1 µM (inactive), respectively.
Consider `C/C=C1/C=CC2c3[nH]c4ccccc4c3CCN2C1` (stereo not given), for which the GI50 in the experiment with K562 is > 400 µM (inactive); in the experiment with HOP-92, 199 µM (inactive); in the experiment on NCI-H522 it was 195 µM (inactive); in the experiment on SF-295, 315 µM (inactive); with Malme-3M, > 400 µM (inactive); in the experiment on HCT-116 it was 223 µM (inactive). Moreover, the GI50 was 116 µM (inactive) with OVCAR-3; more than 400 µM in the experiment with HCT-15; > 400 µM (inactive) in the experiment on SK-MEL-2; > 400 µM (inactive) in the experiment on SW-620; > 400 µM (inactive) in the experiment with U-251; > 400 µM (inactive) in the experiment with RPMI-8226. In addition, the GI50 in the experiment with UACC-257 is 243 µM (inactive).
`Cn1nc(-c2ccccc2)c2c(/C=C/c3ccc(F)cc3)onc2c1=O`: the GI50 in the experiment on K562 was 17.3 µM (inactive); in the experiment with HOP-92, 2.72 µM (inactive); in the experiment on NCI-H522, 17.5 µM (inactive); in the experiment on UO-31, 29.2 µM (inactive); in the experiment with HCT-116, 9.59 µM (inactive); with HCT-15, 39.5 µM. The GI50 in the experiment on SW-620 was > 100 µM (inactive); with U-251 it was 64 µM (inactive); with RPMI-8226 it was > 100 µM (inactive).
For the compound `COc1ccc(C2CCc3cc4c(cc3/C2=N/OC(C)=O)OCO4)cc1OC` (stereo not given), the GI50 with K562 was 20.2 µM (inactive); with HOP-92 it was 23.1 µM (inactive); in the experiment on NCI-H522, 12 µM (inactive); in the experiment on SF-295, 23 µM (inactive); in the experiment with OVCAR-4, 27.1 µM (inactive); with UO-31, 17.2 µM (inactive). Moreover, the GI50 with Malme-3M was 20.1 µM (inactive); in the experiment with HCT-116 it was 14.2 µM (inactive); with OVCAR-3 it was 15.3 µM (inactive); in the experiment on HCT-15, 30.3 µM; in the experiment with SK-MEL-2, 27.8 µM (inactive); with SW-620, 27.4 µM (inactive). For the same compound, the GI50 was 23.8 µM (inactive) with U-251, 12.6 µM (inactive) in the experiment on RPMI-8226 and 18.4 µM (inactive) in the experiment on UACC-257.
`Cn1c(=O)c(C(c2ccc([N+](=O)[O-])cc2)c2c(O)c3ccccc3n(C)c2=O)cc2ccccc21` (stereo not given): the GI50 in the experiment on K562 is > 100 µM (inactive); with HOP-92, 53.1 µM (inactive); in the experiment with NCI-H522 it was 20 µM (inactive); in the experiment with SF-295 it was 39.3 µM (inactive); in the experiment with OVCAR-4, 41.1 µM (inactive); in the experiment with UO-31 it was 35.2 µM (inactive). Moreover, the GI50 with Malme-3M is 26.7 µM (inactive); with HCT-116, 44.2 µM (inactive); in the experiment on OVCAR-3, 55.3 µM (inactive); in the experiment on HCT-15, 45.8 µM; in the experiment with SK-MEL-2, 59.6 µM (inactive); with SW-620, > 100 µM (inactive). In addition, the results for the GI50 with U-251, with RPMI-8226 and with UACC-257 were 18.2 µM (inactive), 41.8 µM (inactive) and 20.5 µM (inactive), respectively.
In the case of `Cc1cc(Cl)cc2c1NC(=O)C2=O.O=C(c1ccccc1)C(F)(F)F`, the GI50 is 32.4 µM (inactive) in the experiment on K562; 52.6 µM (inactive) in the experiment with HOP-92; 24.7 µM (inactive) in the experiment on NCI-H522; 56.2 µM (inactive) with SF-295; 33 µM (inactive) with OVCAR-4; 91.6 µM (inactive) in the experiment on UO-31. In addition, the GI50 with Malme-3M was 45.6 µM (inactive); in the experiment with HCT-116, 59.8 µM (inactive); with OVCAR-3, 35.3 µM (inactive); in the experiment with HCT-15, 64.4 µM; with A498 it was > 100 µM (inactive); in the experiment on SK-MEL-2, 36 µM (inactive). The GI50 in the experiment on SW-620 was 72.8 µM (inactive); in the experiment on U-251 it was 85.9 µM (inactive); with UACC-257, 27.5 µM (inactive).
In the case of `CC(C)=CCC/C(C)=C/CC/C(C)=C/CC/C=C(\C)CC/C=C(\C)CCC1SC1(C)C` (stereo not given), the GI50 in the experiment with K562 was > 100 µM (inactive); in the experiment on HOP-92, 64 µM (inactive); in the experiment on NCI-H522, > 100 µM (inactive); in the experiment on SF-295, > 100 µM (inactive); in the experiment on OVCAR-4, > 100 µM (inactive); with UO-31 it was > 100 µM (inactive). Also, the GI50 with Malme-3M is > 100 µM (inactive); in the experiment with HCT-116 it was > 100 µM (inactive); in the experiment with HCT-15, more than 100 µM; in the experiment on A498, > 100 µM (inactive); in the experiment with SK-MEL-2 it was > 100 µM (inactive); in the experiment on SW-620 it was 52.5 µM (inactive). In addition, the GI50 in the experiment on U-251, in the experiment on RPMI-8226 and in the experiment with UACC-257 was > 100 µM (inactive) throughout.
For the compound `COC(=O)[C@@H]1C(=O)O[C@@H](c2ccc3c(c2)OCO3)[C@@H]1C(=O)OC.COC(=O)[C@H]1C(=O)O[C@@H](c2ccc3c(c2)OCO3)[C@@H]1C(=O)OC`, the GI50 in the experiment with K562 was > 100 µM (inactive); with HOP-92, 43.8 µM (inactive); in the experiment with NCI-H522, > 100 µM (inactive); with SF-295 it was > 100 µM (inactive); with OVCAR-4, > 100 µM (inactive); in the experiment on UO-31 it was > 100 µM (inactive). The GI50 in the experiment with Malme-3M was > 100 µM (inactive); in the experiment with HCT-116, > 100 µM (inactive); with OVCAR-3, > 100 µM (inactive); in the experiment with HCT-15 it was more than 100 µM; with A498, > 100 µM (inactive); in the experiment on SW-620 it was > 100 µM (inactive). Further, the GI50 in the experiment on U-251, in the experiment on RPMI-8226 and in the experiment on UACC-257 was > 100 µM (inactive) each time.
